According to US11319303B2 (WIGEN BIOMEDICINE TECHNOLOGY (SHANGHAI) CO., LTD., priority 2017, dated 2022):

Molecular target: LC3B (Homo sapiens, UniProt Q9GZQ8)
Experiment: Fluorescence Polarization (FP) Assay: displacement of FITC-labeled peptide from GST-LC3B
Assay type: binding
Details: Fluorescence Polarization assay; GST-LC3B 180 nM, FITC-labeled peptide 18 nM, 25° C.; read-out: IC50
Method: The compounds of the present invention for regulating the autophagy-related protein LC3B were tested by Fluorescence Polarization (FP) Assay.
Fluorescence Polarization (FP) Assay Test

Row | IC50 | SMILES
1 | 15 to 100 µM | CN1C(=O)/C(=C\NCCN2CCN(CCO)CC2)C(=O)c2ccccc21 [Compound 193, 3-(((2-(4-(2-hydroxyethyl)piperazin-1-yl)ethyl)amino)methylene)-1-methylquinoline-2,4(1H,3H)-dione]
2 | 15 to 100 µM | COc1cccc2c1NC(=O)/C(=C\NCCN1CCN(CCO)CC1)C2=O [Compound 194, 3-(((2-(4-(2-hydroxyethyl)piperazin-1-yl)ethyl)amino)methylene)-8-methoxyquinoline-2,4(1H,3H)-dione]
3 | 3 to 15 µM | O=C1Nc2c(F)cccc2C(=O)/C1=C/NCCN1CCN(CCO)CC1 [Compound 195, 8-fluoro-3-(((2-(4-(2-hydroxyethyl)piperazin-1-yl)ethyl)amino)methylene) quinoline-2,4 (1H,3H)-dione]
4 | 3 to 15 µM | COc1ccc2c(c1)C(=O)/C(=C/NCCN1CCN(CCO)CC1)C(=O)N2 [Compound 196, 3-(((2-(4-(2-hydroxyethyl)piperazin-1-yl)ethyl)amino)methylene)-6-methoxyquinoline-2,4(1H,3H)-dione]
5 | < 3 µM | O=C1Nc2c(cccc2C(F)(F)F)C(=O)/C1=C/NCCN1CCN(CCO)CC1 [Compound 197, 3-(((2-(4-(2-hydroxyethyl)piperazin-1-yl)ethyl)amino)methylene)-8-(trifluoromethyl) quinoline-2,4(1H,3H)-dione]
6 | 100 to 1000 µM | O=C1NC(=O)/C(=C\NCCN2CCN(CCO)CC2)S1 [Compound 200, 5-(((2-(4-(2-hydroxyethyl)piperazin-1-yl)ethyl)amino)methylene)thiazolidine-2,4-dione]
7 | 100 to 1000 µM | CN(C)C=C1C(=O)C(C)(c2ccccc2)C1=O (centres unmarked) [Compound 201, 4-((dimethylamino)methylene)-2-methyl-2-phenylcyclobutane-1,3-dione]
8 | 15 to 100 µM | CN(C)CCCNC=C1C(=O)CC(c2ccccc2)CC1=O (centres unmarked) [Compound 202, 2-(((3-(dimethylamino)propyl)amino)methylene)-5-phenylcyclohexane-1,3-dione]
9 | 3 to 15 µM | Cc1cccc(CNC=C2C(=O)CC(c3ccccc3)CC2=O)n1 (centres unmarked) [Compound 203, 2-((((6-methylpyridin-2-yl)methyl)amino)methylene)-5-phenylcyclohexane-1,3-dione]
10 | 100 to 1000 µM | O=C1CC(c2ccccc2)CC(=O)C1=CNCc1ccc(Cl)cn1 (centres unmarked) [Compound 204, 2-((((5-chloropyridin-2-yl)methyl)amino)methylene)-5-phenylcyclohexane-1,3-dione]
11 | 100 to 1000 µM | O=C1CC(c2ccccc2)CC(=O)C1=CNCc1cc2ccccc2[nH]1 (centres unmarked) [Compound 205, 2-((((1H-indol-2-yl)methyl)amino)methylene)-5-phenylcyclohexane-1,3-dione]
12 | 15 to 100 µM | CSCCNC=C1C(=O)CC(c2ccccc2)CC1=O (centres unmarked) [Compound 206, 2-(((2-(methylthio)ethyl)amino)methylene)-5-phenylcyclohexane-1,3-dione]
13 | 15 to 100 µM | C[S+]([O-])CCNC=C1C(=O)CC(c2ccccc2)CC1=O (centres unmarked) [Compound 207, 2-(((2-(methylsulfinyl)ethyl)amino)methylene)-5-phenylcyclohexane-1,3-dione]
14 | 15 to 100 µM | CS(=O)(=O)CCNC=C1C(=O)CC(c2ccccc2)CC1=O (centres unmarked) [Compound 208, 2-(((2-(methylsulfonyl)ethyl)amino)methylene)-5-phenylcyclohexane-1,3-dione]
15 | < 3 µM | CN(C)CCNC=C1C(=O)CC(c2ccccc2)C(F)C1=O (centres unmarked) [Compound 209, 2-(((2-(dimethylamino)ethyl)amino)methylene)-4-fluoro-5-phenylcyclohexane-1,3-dione]
16 | 15 to 100 µM | O=C(O)CNC(=O)CNC=C1C(=O)CC(c2ccccc2)CC1=O (centres unmarked) [Compound 210, ((2,6-dioxo-4-phenylcyclo-hexylidene)methyl) glycylglycine]
17 | < 3 µM | CC(C)C(=O)N1CCN(CCNC=C2C(=O)CC(c3ccccc3)CC2=O)CC1 (centres unmarked) [Compound 211, 2-(((2-(4-isobutyrylpiperazin-1-yl)ethyl)amino)methylene)-5-phenylcyclohexane-1,3-dione]
18 | < 3 µM | CC(C)(C)C(=O)N1CCN(CCNC=C2C(=O)CC(c3ccccc3)CC2=O)CC1 (centres unmarked) [Compound 212, 5-phenyl-2-(((2-(4-pivaloylpiperazin-1-yl)ethyl)amino)methylene) cyclohexane-1,3-dione]
19 | < 3 µM | CC(C)CC(=O)N1CCN(CCNC=C2C(=O)CC(c3ccccc3)CC2=O)CC1 (centres unmarked) [Compound 213, 2-(((2-(4-(3-methylbutanoyl)piperazin-1-yl)ethyl)amino)methylene)-5-phenylcyclohexane-1,3-dione]
20 | < 3 µM | CN(C)C(=O)N1CCN(CCNC=C2C(=O)CC(c3ccccc3)CC2=O)CC1 (centres unmarked) [Compound 214, 4-(2-(((2,6-dioxo-4-phenylcyclo-hexylidene)methyl)amino)ethyl)-N,N-dimethylpiperazine-1-carboxamide]
21 | < 3 µM | CCC(=O)N1CCN(CCNC=C2C(=O)CC(c3ccccc3)CC2=O)CC1 (centres unmarked) [Compound 215, 5-phenyl-2-(((2-(4-propionylpiperazin-1-yl)ethyl)amino)methylene) cyclohexane-1,3-dione]
22 | < 3 µM | O=C1CC(c2ccccc2)CC(=O)C1=CNCCN1CCN(C(=O)c2ccccc2)CC1 (centres unmarked) [Compound 216, 2-(((2-(4-benzoylpiperazin-1-yl)ethyl)amino)methylene)-5-phenylcyclohexane-1,3-dione]
23 | 3 to 15 µM | O=C1CC(c2ccccc2)CC(=O)C1=CNCCN1CCN(C(=O)c2ccc([N+](=O)[O-])cc2)CC1 (centres unmarked) [Compound 217, 2-(((2-(4-(4-nitrobenzoyl)piperazin-1-yl)ethyl)amino)methylene)-5-phenylcyclohexane-1,3-dione]
24 | < 3 µM | CS(=O)(=O)N1CCN(CCNC=C2C(=O)CC(c3ccccc3)CC2=O)CC1 (centres unmarked) [Compound 218, 2-(((2-(4-(methylsulfonyl)piperazin-1-yl)ethyl)amino)methylene)-5-phenylcyclohexane-1,3-dione]
25 | < 3 µM | O=C1CC(c2ccccc2)CC(=O)C1=CNCCN1CCN(C(=O)c2ccc(Cl)cc2)CC1 (centres unmarked) [Compound 219, 2-(((2-(4-(4-chlorobenzoyl)piperazin-1-yl)ethyl)amino)methylene)-5-phenylcyclohexane-1,3-dione]
26 | 3 to 15 µM | O=C1CC(c2ccccc2)CC(=O)C1=CNCCN1CCN(C(=O)c2ccc(Br)cc2)CC1 (centres unmarked) [Compound 220, 2-(((2-(4-(4-bromobenzoyl)piperazin-1-yl)ethyl)amino)methylene)-5-phenylcyclohexane-1,3-dione]
27 | < 3 µM | O=C1CC(c2ccccc2)CC(=O)C1=CNCCN1CCN(C(=O)Cc2ccccc2)CC1 (centres unmarked) [Compound 221, 5-phenyl-2-(((2-(4-(2-phenylacetyl)piperazin-1-yl)ethyl)amino)methylene) cyclohexane-1,3-dione]
28 | < 3 µM | O=C1CC(c2ccccc2)CC(=O)C1=CNCCN1CCN(C(=O)c2cccnc2)CC1 (centres unmarked) [Compound 222, 2-(((2-(4-nicotinoylpiperazin-1-yl)ethyl)amino)methylene)-5-phenylcyclohexane-1,3-dione]
29 | < 3 µM | Cc1ccc(NC(=O)N2CCN(CCNC=C3C(=O)CC(c4ccc(C)cc4)CC3=O)CC2)cc1 (centres unmarked) [Compound 224, 4-(2-(((2,6-dioxo-4-(p-tolyl)cyclohexylidene)methyl)amino)ethyl)-N-(p-tolyl)piperazine-1-carboxamide]
